{
  "source": "patent US20260199423A1",
  "about": "“COMPOSITIONS COMPRISING AN ONCOLYTIC PEPTIDE AND CHITOSAN” (LYTIX BIOPHARMA AS, priority 2022, published 2026)",
  "test_system": "B16F1 melanoma cells",
  "assay": "Melanoma mouse model, injection into the tumor",
  "format": "in vivo, C57BL/6NRj mice",
  "conditions": "50 μl into the tumor on two consecutive days; groups of 10 mice; FIG. 2",
  "description": "The following compositions were prepared as described in Example 1 in aqueous acetic acid/acetate buffer, pH 5.2. The following chitosan was used in this study: chitosan medium molecular weight, 330 kDa, DAA 86% (manufacturer Chitinor, Norway). • 1: LTX-401, 5 mg/ml (free base) • 2: Chitosan, 1.2% (w/w) • 3: LTX-401, 5 mg/ml (free base) and chitosan, 1.2% (w/w) • 4: Control: aqueous acetic acid/acetate buffer\nImmunocompetent C57BL/6NRj mice (JanVier Labs, France) were inoculated with B16F1 melanoma cells on day 0 by subcutaneous injection of 5×10^4 tumor cells per mouse/50 μl RPMI-1640 in the skin on the abdomen of the animal. The mice were divided into 4 groups of 10 mice each, and treatment was initiated when the tumors were palpable and reached the desired size of approximately 5 mm in diameter (40-80 mm^3). The respective compositions 1~4 were administered by injection into the tumor (50 μl) on two consecutive days (day 11 and 12 or day 12 and 13 or day 13 and 14, depending on tumor growth). The mice were monitored during the study by measuring the tumors and weighing the animals regularly. The tumor volume was measured using an electronic caliper and expressed as volume V=(L×W×W)/2, where W is the tumor width and L is the tumor length. […]",
  "data": [
    {"smiles": "NCCNC(=O)C(CN)(CCCc1ccccc1)CCCc1ccccc1", "note": "[LTX-401]", "values": [
      {"measurement": "Survival", "value": 60, "unit": "%"}
    ]}
  ]
}
